Values of other authors in US12629325B2, “Increased solubilization of Bemotrizinol” (DSM IP ASSETS B.V., priority 2020, dated 2026).
Where two headings read alike, the source gives them in different places.

Details: for Solubility in esters: particularly C12-15 alkyl benzoate
[1] = listed as UV-filter of the formula (I)

Solubility in alkanes: very low | Solubility in alkanes [1]: insoluble | Solubility in esters: moderate solubility | Solubility in esters [1]: very soluble | Solubility in water: very low | Solubility in water [1]: insoluble
Structure (SMILES): CCCCC(CC)COc1ccc(-c2nc(-c3ccc(OC)cc3)nc(-c3ccc(OCC(CC)CCCC)cc3O)n2)c(O)c1 (stereo not drawn) [Bemotrizinol, 2,4-Bis-{[4-(2-ethyl-hexyloxy)-2-hydroxy]-phenyl}-6-(4-methoxyphenyl)-1,3,5-triazine]
